# Measurements from the supplement of paper PMC11208160.
# Test: recombinant UMI read abundance after kanamycin selection (control-corrected) (log10(CPM+1)); higher = more efficient recombination; extreme values may be limits of the assay; sequences stand for … in AGTGCAGAGAAAATCGGCCAGTTTTCTCTGCCTGCAGTCCGCATGCCGTGGGACCCCTTGGGTTCTAACCTGTTGCCTAGATTTATGCAGCGGACTGCCTTTCTCCCAAAGTGATAAACCGG…AGGTTGGTTTCACT; site = the 11-nt donor
# In short: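 The measure is log10(CPM+1) for recombinant UMIs. These were PCR-amplified across the donor–target junction and sequenced after Escherichia coli carrying a donor and donor-binding-loop pair library and a target plasmid with T7-inducible IS621 bridge recombinase was plated on IPTG (0.07 mM) plus kanamycin or unselected. CPM were averaged over two replicates and scaled by control-derived factors.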
# 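Also: IS621 bridge recombinase in Escherichia coli cells against a fixed T5 target plasmid.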
row,Sequence,recombinant UMI read abundance (log10)
1,CAAGGCCCATGGACCGGTTTTCCCGGTAATCCGTATTTGTT (site CATGGCCCTAA),0.0187
2,CAAGGCGCATGGACCGGTTTTCCCGGTAATCCGTATTTGGA (site CAAGGCGCTTC),1.42
3,CAAGGGCCATGGACCGGTTTTCCCGGTAATCCGTATTTGTG (site CAAGAGCCTCA),0.431
4,CAAGGGCCATGGACCGGTTTTCCCGGTAATCCGTATTTGTG (site CAAGCGCCTCA),0.0177
5,CAAGGGCCATGGACCGGTTTTCCCGGTAATCCGTATTTGTG (site CAAGGGCCTCA),0.314
6,CAAGGGCCATGGACCGGTTTTCCCGGTAATCCGTATTTGTG (site CAAGTGCCTCA),0.115
7,CAAGGGGCATGGACCGGTTTTCCCGGTAATCCGTATTTGTT (site CAAGGGGCTAA),2.43
8,CAAGGTGCATGGACCGGTTTTCCCGGTAATCCGTATTTGAT (site CAAGGTGCTAT),2.52
9,CAAGGTGCATGGACCGGTTTTCCCGGTAATCCGTATTTGAT (site CCAGGTGCTAT),0.8
10,CAAGGTGCATGGACCGGTTTTCCCGGTAATCCGTATTTGAT (site CGAGGTGCTAT),1.13
11,CAAGGTGCATGGACCGGTTTTCCCGGTAATCCGTATTTGAT (site CTAGGTGCTAT),1.67
12,CAAGTAGCATGGACCGGTTTTCCCGGTAATCCGTATTTGCT (site CAAGAAGCTAG),0
13,CAAGTAGCATGGACCGGTTTTCCCGGTAATCCGTATTTGCT (site CAAGCAGCTAG),0.378
14,CAAGTAGCATGGACCGGTTTTCCCGGTAATCCGTATTTGCT (site CAAGGAGCTAG),0.0678
15,CAAGTAGCATGGACCGGTTTTCCCGGTAATCCGTATTTGCT (site CAAGTAGCTAG),1.66
16,CAAGTATCATGGACCGGTTTTCCCGGTAATCCGTATTTGAG (site CAAGTATCTCT),3.07
17,CAAGTATCATGGACCGGTTTTCCCGGTAATCCGTATTTGAG (site CTAGTATCTGT),0
18,CAAGTCACATGGACCGGTTTTCCCGGTAATCCGTATTTGGA (site CAAGTCACTAC),0.358
19,CAAGTCACATGGACCGGTTTTCCCGGTAATCCGTATTTGGA (site CAAGTCACTCC),0.638
20,CAAGTCACATGGACCGGTTTTCCCGGTAATCCGTATTTGGA (site CAAGTCACTGC),0.803
21,CAAGTCACATGGACCGGTTTTCCCGGTAATCCGTATTTGGA (site CAAGTCACTTC),2.03
22,CAAGTCACATGGACCGGTTTTCCCGGTAATCCGTATTTGTG (site CAAGTCACTCA),0.0199
23,CAAGTCACATGGACCGGTTTTCCCGGTAATCCGTATTTGTG (site CAAGTCACTCC),0.0385
24,CAAGTCACATGGACCGGTTTTCCCGGTAATCCGTATTTGTG (site CAAGTCACTCG),0.151
25,CAAGTCACATGGACCGGTTTTCCCGGTAATCCGTATTTGTG (site CAAGTCACTCT),0.103

row,Sequence,recombinant UMI read abundance (log10)
1,CAAGTCCCATGGACCGGTTTTCCCGGTAATCCGTATTTGGG (site CAAGTCACTCC),0.0127
2,CAAGTCCCATGGACCGGTTTTCCCGGTAATCCGTATTTGGG (site CAAGTCCCTCC),0.00917
3,CAAGTCCCATGGACCGGTTTTCCCGGTAATCCGTATTTGGG (site CAAGTCGCTCC),0.0161
4,CAAGTCCCATGGACCGGTTTTCCCGGTAATCCGTATTTGGG (site CAAGTCTCTCC),0.025
5,CAAGTGCCATGGACCGGTTTTCCCGGTAATCCGTATTTGTG (site CAAGAGCCTCA),0.354
6,CAAGTGCCATGGACCGGTTTTCCCGGTAATCCGTATTTGTG (site CAAGCGCCTCA),0.389
7,CAAGTGCCATGGACCGGTTTTCCCGGTAATCCGTATTTGTG (site CAAGGGCCTCA),0.21
8,CAAGTGCCATGGACCGGTTTTCCCGGTAATCCGTATTTGTG (site CAAGTGCCTCA),0.662
9,CAATCGACATGGACCGGTTTTCCCGGTAATCCGTATTTGGG (site CAATCGACTCC),0.0993
10,CAATCGACATGGACCGGTTTTCCCGGTAATCCGTATTTGGG (site CACTCGACTCC),0.335
11,CAATCGACATGGACCGGTTTTCCCGGTAATCCGTATTTGGG (site CAGTCGACTCC),0
12,CAATCGACATGGACCGGTTTTCCCGGTAATCCGTATTTGGG (site CATTCGACTCC),0.0172
13,CAATCGACATGGACCGGTTTTCCCGGTAATCCGTATTTGTT (site CAATCGACTAA),0.347
14,CAATCGACATGGACCGGTTTTCCCGGTAATCCGTATTTGTT (site CCATCGACTAA),0.0214
15,CAATCGACATGGACCGGTTTTCCCGGTAATCCGTATTTGTT (site CGATCGACTAA),0.0271
16,CAATCGACATGGACCGGTTTTCCCGGTAATCCGTATTTGTT (site CTATCGACTAA),0.0699
17,CAATGCTCATGGACCGGTTTTCCCGGTAATCCGTATTTGAA (site AAATGCTCTTT),0.129
18,CAATGCTCATGGACCGGTTTTCCCGGTAATCCGTATTTGAA (site CAAAGCTCTTT),0.393
19,CAATGCTCATGGACCGGTTTTCCCGGTAATCCGTATTTGAA (site CAACGCTCTTT),1.58
20,CAATGCTCATGGACCGGTTTTCCCGGTAATCCGTATTTGAA (site CAAGGCTCTTT),0.0098
21,CAATGCTCATGGACCGGTTTTCCCGGTAATCCGTATTTGAA (site CAATACTCTTT),1.94
22,CAATGCTCATGGACCGGTTTTCCCGGTAATCCGTATTTGAA (site CAATCCTCTTT),0.0831
23,CAATGCTCATGGACCGGTTTTCCCGGTAATCCGTATTTGAA (site CAATGATCTTT),0.389
24,CAATGCTCATGGACCGGTTTTCCCGGTAATCCGTATTTGAA (site CAATGCACTTT),0.182
25,CAATGCTCATGGACCGGTTTTCCCGGTAATCCGTATTTGAA (site CAATGCCCTTT),1.25

row,Sequence,recombinant UMI read abundance (log10)
1,CAATGCTCATGGACCGGTTTTCCCGGTAATCCGTATTTGAA (site CAATGCGCTTT),0.0142
2,CAATGCTCATGGACCGGTTTTCCCGGTAATCCGTATTTGAA (site CAATGCTCTAT),1.03
3,CAATGCTCATGGACCGGTTTTCCCGGTAATCCGTATTTGAA (site CAATGCTCTCT),0.924
4,CAATGCTCATGGACCGGTTTTCCCGGTAATCCGTATTTGAA (site CAATGCTCTGT),0.818
5,CAATGCTCATGGACCGGTTTTCCCGGTAATCCGTATTTGAA (site CAATGCTCTTA),0.908
6,CAATGCTCATGGACCGGTTTTCCCGGTAATCCGTATTTGAA (site CAATGCTCTTC),0.687
7,CAATGCTCATGGACCGGTTTTCCCGGTAATCCGTATTTGAA (site CAATGCTCTTG),0.554
8,CAATGCTCATGGACCGGTTTTCCCGGTAATCCGTATTTGAA (site CAATGCTCTTT),2.57
9,CAATGCTCATGGACCGGTTTTCCCGGTAATCCGTATTTGAA (site CAATGGTCTTT),0.0124
10,CAATGCTCATGGACCGGTTTTCCCGGTAATCCGTATTTGAA (site CAATGTTCTTT),0
11,CAATGCTCATGGACCGGTTTTCCCGGTAATCCGTATTTGAA (site CAATTCTCTTT),0
12,CAATGCTCATGGACCGGTTTTCCCGGTAATCCGTATTTGAA (site CACTGCTCTTT),0.0585
13,CAATGCTCATGGACCGGTTTTCCCGGTAATCCGTATTTGAA (site CAGTGCTCTTT),0.102
14,CAATGCTCATGGACCGGTTTTCCCGGTAATCCGTATTTGAA (site CATTGCTCTTT),0.408
15,CAATGCTCATGGACCGGTTTTCCCGGTAATCCGTATTTGAA (site CCATGCTCTTT),0.461
16,CAATGCTCATGGACCGGTTTTCCCGGTAATCCGTATTTGAA (site CGATGCTCTTT),0.0125
17,CAATGCTCATGGACCGGTTTTCCCGGTAATCCGTATTTGAA (site CTATGCTCTTT),0.217
18,CAATGCTCATGGACCGGTTTTCCCGGTAATCCGTATTTGAA (site GAATGCTCTTT),0.00437
19,CAATGCTCATGGACCGGTTTTCCCGGTAATCCGTATTTGAA (site TAATGCTCTTT),0.0133
20,CAATGCTCATGGACCGGTTTTCCCGGTAATCCGTATTTGTA (site CAATGCTCTTA),3.1
21,CAATGCTCATGGACCGGTTTTCCCGGTAATCCGTATTTGTA (site CAATGCTCTTC),0.746
22,CAATGCTCATGGACCGGTTTTCCCGGTAATCCGTATTTGTA (site CAATGCTCTTG),2.25
23,CAATGCTCATGGACCGGTTTTCCCGGTAATCCGTATTTGTA (site CAATGCTCTTT),1.55
24,CAATTCCCATGGACCGGTTTTCCCGGTAATCCGTATTTGAT (site CAATTCCCTAA),0.00345
25,CAATTCCCATGGACCGGTTTTCCCGGTAATCCGTATTTGAT (site CAATTCCCTAC),0
